Source: patent publication US9708314B2, “Heterocyclic amide compound” (NISSAN CHEMICAL INDUSTRIES, LTD., priority 2013, dated 2017)

Assays:
Assay type in all cases: in vivo
[1] = tested on: Avena fatua; experiment: Test Example 4: herbicidal effect by application to foliage (diluvial soil, plastic box); settings: for I: herbicidal effect on Avena fatua: application herbicide amount 320 g/ha; for I (Avena fatua) herbicidal effect grade: foliage application
Outline: (§1)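 Emulsion-formulated compound, diluted to a predetermined g/ha dose, applied by small sprayer to leaves and stems of 14-day-old seedlings grown in sterilized diluvial soil. Effect rated on 0–5 herbicidal-ratio scale three weeks on.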

[2] = tested on: Echinochloa crus-galli var. crus-galli; experiment: as above; settings: for H: herbicidal effect on Echinochloa crus-galli var. crus-galli: application herbicide amount 320 g/ha; for H (Echinochloa crus-galli var. crus-galli) herbicidal effect grade: foliage application
Outline: as §1

[3] = tested on: Abutilon theophrasti; experiment: as above; settings: for M: herbicidal effect on Abutilon theophrasti: application herbicide amount 320 g/ha; for M (Abutilon theophrasti) herbicidal effect grade: foliage application
Outline: as §1

[4] = tested on: Veronica persica; experiment: as above; settings: application to foliage, application herbicide amount 320 g/ha
Outline: as §1

[5] = tested on: Chenopodium album; experiment: as above; settings: for O: herbicidal effect on Chenopodium album: application herbicide amount 320 g/ha; for O (Chenopodium album) herbicidal effect grade: foliage application
Outline: as §1

[6] = tested on: Apera spica-venti.; experiment: as above; settings: for L: herbicidal effect on Apera spica-venti.: application herbicide amount 320 g/ha; for L (Apera spica-venti.) herbicidal effect grade: foliage application
Outline: as §1

[7] = tested on: Galium spurium; experiment: as above; settings: for Q: herbicidal effect on Galium spurium: application herbicide amount 320 g/ha; for Q (Galium spurium) herbicidal effect grade: foliage application
Outline: as §1

[8] = tested on: transplanted Oryza sativa; experiment: Test Example 1: effect on crop, application before weed generation in submerged conditions; settings: Application herbicide amount 320 g/ha; Seventeenth Table
Outline: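 Rating, on a six-step scale from almost no effect (0) to almost completely withered (5), was made three weeks after pre-emergence treatment. Treatment was surface application to flooded pots at g/ha rates, with plants kept at 25° C. to 30° C.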

[9] = tested on: directly sowed Oryza sativa; experiment: Test Example 3: effect on crop by application to foliage (Wagner pot, water depth 0.1-0.5 cm); settings: Nineteenth Table, application to foliage
Outline: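 Greenhouse pot test, 25–30 °C, alluvial soil. Sown seedlings grown 14 days then sprayed on leaves and stems with emulsion diluted to target g/ha. Rating at 3 weeks, 0–5 scale (0 ≤5%, 5 ≥90%).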

[10] = application herbicide amount 320 g/ha
[11] = application to foliage, 320 g/ha

| SMILES | I: herbicidal effect on Avena fatua ([1]; application to foliage) | H: herbicidal effect on Echinochloa crus-galli var. crus-galli ([2]; application to foliage) | M: herbicidal effect on Abutilon theophrasti ([3]; application to foliage) | R: herbicidal effect on Veronica persica [4] | O: herbicidal effect on Chenopodium album ([5]; application to foliage) | L: herbicidal effect on Apera spica-venti. ([6]; application to foliage) | Q: herbicidal effect on Galium spurium ([7]; application to foliage) | a: transplanted Oryza sativa (effect on crop grade) [8] | b (effect on crop grade) [9, 10] | I (Avena fatua) herbicidal effect grade ([1]; 320 g/ha) | H (Echinochloa crus-galli var. crus-galli) herbicidal effect grade ([2]; 320 g/ha) | M (Abutilon theophrasti) herbicidal effect grade ([3]; 320 g/ha) | O (Chenopodium album) herbicidal effect grade ([5]; 320 g/ha) | L (Apera spica-venti.) herbicidal effect grade ([6]; 320 g/ha) | Q (Galium spurium) herbicidal effect grade ([7]; 320 g/ha) | further results |
| --- | --- | --- | --- | --- | --- | --- | --- | --- | --- | --- | --- | --- | --- | --- | --- | --- |
| COc1ccc(N(C)c2nnc3c(C(=O)Nc4nnco4)ccc(C(F)(F)F)n23)cc1 [1-171] | 0 (Herbicidal ratio of 5% or less (almost no effect)) | 5 (Herbicidal ratio of 90% or more (almost completely withered)) | 4 (Herbicidal ratio of 70% or more and less than 90%) | 3 (Herbicidal ratio of 40% or more and less than 70%) | 5 (Herbicidal ratio of 90% or more (almost completely withered)) | 1 (Herbicidal ratio of 5% or more and less than 20%) | 2 (Herbicidal ratio of 20% or more and less than 40%) | 1 (Herbicidal ratio of 5% or more and less than 20%) | 0 (Herbicidal ratio of 5% or less (almost no effect)) |  |  |  |  |  |  |  |
| C=CCN(C)c1nnc2c(C(=O)Nc3nnco3)ccc(C(F)(F)F)n12 [1-172] | 2 (Herbicidal ratio of 20% or more and less than 40%) | 5 (Herbicidal ratio of 90% or more (almost completely withered)) | 5 (Herbicidal ratio of 90% or more (almost completely withered)) | 4 (Herbicidal ratio of 70% or more and less than 90%) | 5 (Herbicidal ratio of 90% or more (almost completely withered)) | 1 (Herbicidal ratio of 5% or more and less than 20%) | 4 (Herbicidal ratio of 70% or more and less than 90%) | 1 (Herbicidal ratio of 5% or more and less than 20%) | 3 (Herbicidal ratio of 40% or more and less than 70%) |  |  |  |  |  |  |  |
| Cn1nnnc1NC(=O)c1ccc(C(F)(F)F)n2cnnc12 [2-001] | 1 (Herbicidal ratio of 5% or more and less than 20%) | 4 (Herbicidal ratio of 70% or more and less than 90%) | 5 (Herbicidal ratio of 90% or more (almost completely withered)) | 5 (Herbicidal ratio of 90% or more (almost completely withered)) | 5 (Herbicidal ratio of 90% or more (almost completely withered)) | 0 (Herbicidal ratio of 5% or less (almost no effect)) | 4 (Herbicidal ratio of 70% or more and less than 90%) | 0 (Herbicidal ratio of 5% or less (almost no effect)) | 1 (Herbicidal ratio of 5% or more and less than 20%) |  |  |  |  |  |  |  |
| Cc1nnc2c(C(=O)Nc3nnnn3C)ccc(C(F)(F)F)n12 [2-002] | 3 (Herbicidal ratio of 40% or more and less than 70%) | 5 (Herbicidal ratio of 90% or more (almost completely withered)) | 5 (Herbicidal ratio of 90% or more (almost completely withered)) | 5 (Herbicidal ratio of 90% or more (almost completely withered)) | 5 (Herbicidal ratio of 90% or more (almost completely withered)) | 1 (Herbicidal ratio of 5% or more and less than 20%) | 4 (Herbicidal ratio of 70% or more and less than 90%) | 0 (Herbicidal ratio of 5% or less (almost no effect)) | 2 (Herbicidal ratio of 20% or more and less than 40%) |  |  |  |  |  |  |  |
| CC(C)c1nnc2c(C(=O)Nc3nnnn3C)ccc(C(F)(F)F)n12 [2-003] | 3 (Herbicidal ratio of 40% or more and less than 70%) | 5 (Herbicidal ratio of 90% or more (almost completely withered)) | 5 (Herbicidal ratio of 90% or more (almost completely withered)) | 5 (Herbicidal ratio of 90% or more (almost completely withered)) | 5 (Herbicidal ratio of 90% or more (almost completely withered)) | 5 (Herbicidal ratio of 90% or more (almost completely withered)) | 4 (Herbicidal ratio of 70% or more and less than 90%) | 4 (Herbicidal ratio of 70% or more and less than 90%) |  |  |  |  |  |  |  | b (effect on crop grade) ([9]; application herbicide amount 200 g/ha): 0 (Herbicidal ratio of 5% or less (almost no effect)) |
| CSCCn1nnnc1NC(=O)c1ccc(C(F)(F)F)n2c(C(C)C)nnc12 [2-048] |  |  |  |  |  |  |  | 4 (Herbicidal ratio of 70% or more and less than 90%) | 3 (Herbicidal ratio of 40% or more and less than 70%) | 4 (Herbicidal ratio of 70% or more and less than 90%) | 5 (Herbicidal ratio of 90% or more (almost completely withered)) | 5 (Herbicidal ratio of 90% or more (almost completely withered)) | 5 (Herbicidal ratio of 90% or more (almost completely withered)) | 4 (Herbicidal ratio of 70% or more and less than 90%) | 4 (Herbicidal ratio of 70% or more and less than 90%) |  |
| CC(c1nnc2c(C(=O)Nc3nnnn3C)ccc(C(F)(F)F)n12)[S+](C)[O-] (stereo not shown) [2-053] |  |  |  |  |  |  |  | 5 (Herbicidal ratio of 90% or more (almost completely withered)) | 5 (Herbicidal ratio of 90% or more (almost completely withered)) | 5 (Herbicidal ratio of 90% or more (almost completely withered)) | 5 (Herbicidal ratio of 90% or more (almost completely withered)) | 5 (Herbicidal ratio of 90% or more (almost completely withered)) | 5 (Herbicidal ratio of 90% or more (almost completely withered)) | 5 (Herbicidal ratio of 90% or more (almost completely withered)) | 5 (Herbicidal ratio of 90% or more (almost completely withered)) |  |
| CC(c1nnc2c(C(=O)Nc3nnnn3C)ccc(C(F)(F)F)n12)S(C)(=O)=O (stereo not shown) [2-054] |  |  |  |  |  |  |  | 5 (Herbicidal ratio of 90% or more (almost completely withered)) | 5 (Herbicidal ratio of 90% or more (almost completely withered)) | 5 (Herbicidal ratio of 90% or more (almost completely withered)) | 5 (Herbicidal ratio of 90% or more (almost completely withered)) | 5 (Herbicidal ratio of 90% or more (almost completely withered)) | 5 (Herbicidal ratio of 90% or more (almost completely withered)) | 5 (Herbicidal ratio of 90% or more (almost completely withered)) | 4 (Herbicidal ratio of 70% or more and less than 90%) |  |
| Cn1nnnc1NC(=O)c1ccc(C(F)(F)F)n2c(Nc3ccccc3)nnc12 [2-056] |  |  |  |  |  |  |  | 1 (Herbicidal ratio of 5% or more and less than 20%) | 4 (Herbicidal ratio of 70% or more and less than 90%) | 1 (Herbicidal ratio of 5% or more and less than 20%) | 4 (Herbicidal ratio of 70% or more and less than 90%) | 4 (Herbicidal ratio of 70% or more and less than 90%) | 5 (Herbicidal ratio of 90% or more (almost completely withered)) | 1 (Herbicidal ratio of 5% or more and less than 20%) | 4 (Herbicidal ratio of 70% or more and less than 90%) |  |
| Cn1nnnc1NC(=O)c1ccc(C(F)(F)F)n2c(SCC(F)(F)F)nnc12 [2-087] |  |  |  |  |  |  |  | 3 (Herbicidal ratio of 40% or more and less than 70%) | 3 (Herbicidal ratio of 40% or more and less than 70%) |  |  |  |  |  |  | herbicidal effect, I (Avena fatua) [1, 11]: 4 (Herbicidal ratio of 70% or more and less than 90%); herbicidal effect, H (Echinochloa crus-galli var. crus-galli) [2, 11]: 5 (Herbicidal ratio of 90% or more (almost completely withered)); herbicidal effect, M (Abutilon theophrasti) [3, 11]: 5 (Herbicidal ratio of 90% or more (almost completely withered)); herbicidal effect, O (Chenopodium album) [5, 11]: 5 (Herbicidal ratio of 90% or more (almost completely withered)); herbicidal effect, L (Apera spica-venti.) [6, 11]: 4 (Herbicidal ratio of 70% or more and less than 90%); herbicidal effect, Q (Galium spurium) [7, 11]: 3 (Herbicidal ratio of 40% or more and less than 70%) |
